Several values for one entry are separate records, joined by “and”; a condition that tells them apart may be missing. Equal entries are not always repeated. Where two headings read alike, the source gives them in different places. No end group written: not given here.

These results are taken from patent publication US8568736B2, “Polypeptide derivatives of parathyroid hormone (PTH)” (The General Hospital Corporation, priority 1999, dated 2013).

The target of experiment [1] is T1, truncated human PTH-1 receptor, hΔNt (Homo sapiens, UniProt Q03431).
T1 construct: expressed in transfected cells; host or cells: COS-7, transient, pcDNA-1 plasmid derived from HK-WT
T1 sequence (Q03431 with tags, fused parts or gaps limits assumed): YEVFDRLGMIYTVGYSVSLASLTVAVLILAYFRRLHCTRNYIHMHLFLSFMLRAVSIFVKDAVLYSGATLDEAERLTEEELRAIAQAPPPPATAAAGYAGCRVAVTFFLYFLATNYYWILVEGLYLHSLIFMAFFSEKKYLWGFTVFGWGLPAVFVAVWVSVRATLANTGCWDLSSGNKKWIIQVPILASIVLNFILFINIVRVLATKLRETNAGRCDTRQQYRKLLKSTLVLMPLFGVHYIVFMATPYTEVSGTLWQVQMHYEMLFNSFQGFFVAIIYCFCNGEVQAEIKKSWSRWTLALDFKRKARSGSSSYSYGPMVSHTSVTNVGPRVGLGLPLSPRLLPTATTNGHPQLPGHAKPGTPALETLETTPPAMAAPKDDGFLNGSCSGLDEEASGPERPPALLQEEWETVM
In words: cAMP stimulation in COS-7 cells transiently transfected with truncated receptor hDeINt. In kind it is cell-based. The conditions noted are these: for Emax: hDeINt, Emax constrained to peptide #7 (20 μM) response. As to the method:
(§1) COS-7 cells were transfected in 24-well plates when the cells were 85 to 95% of confluency using 200 ng of plasmid DNA that was purified by cesium chloride/ethidium bromide gradient centrifugation for each well. Assays were conducted 72 to 96 hours after transfection.
(§2) Stimulation of cells with peptide analogs was performed in 24-well plates. Cells were rinsed with 0.5 mL of binding buffer and treated with 200 μL of cAMP assay buffer (Dulbecco's modified Eagle's medium containing 2 mM 3-isobutyl-1-methylxanthine, 1 mg/mL bovine serum albumin, 35 mM Hepes-NaOH, pH 7.4) and 100 μL of binding buffer containing varying amounts of peptide analog (final volume=300 μL). The medium was removed after incubation for 1 h at room temperature, and the cells were frozen (−80° C.), lysed with 0.5 mL 50 mM HCl, and refrozen (−80° C.). The cAMP content of the diluted lysate was determined by radioimmunoassay. Where possible, cAMP EC50 and Maximum response values were determined using nonlinear regression (see below).
(§3) All calculations were performed using Microsoft Excel. Nonlinear regression analysis of cAMP stimulation data was performed using parameters, defined as the Minimum, Maximum, Emax, midpoint (EC50), and slope of the response curve. The predicted response (yp) for a given dose (x) of peptide was calculated using the following equation: yp=Min+[(Max−Min)/(1+(EC50/x)^slope)]. […] The statistical significance between two data sets was determined using a one-tailed Student's t-test, assuming unequal variances for the two sets.

The target in the next experiment is T2, WT hPTH-1 receptor (Homo sapiens, UniProt Q03431).
T2 construct: encoding the intact hPTH-1 receptor (HK-WT); expressed in transfected cells; host or cells: COS-7, transient, pcDNA-1 plasmid
T2 sequence (Q03431 27-593): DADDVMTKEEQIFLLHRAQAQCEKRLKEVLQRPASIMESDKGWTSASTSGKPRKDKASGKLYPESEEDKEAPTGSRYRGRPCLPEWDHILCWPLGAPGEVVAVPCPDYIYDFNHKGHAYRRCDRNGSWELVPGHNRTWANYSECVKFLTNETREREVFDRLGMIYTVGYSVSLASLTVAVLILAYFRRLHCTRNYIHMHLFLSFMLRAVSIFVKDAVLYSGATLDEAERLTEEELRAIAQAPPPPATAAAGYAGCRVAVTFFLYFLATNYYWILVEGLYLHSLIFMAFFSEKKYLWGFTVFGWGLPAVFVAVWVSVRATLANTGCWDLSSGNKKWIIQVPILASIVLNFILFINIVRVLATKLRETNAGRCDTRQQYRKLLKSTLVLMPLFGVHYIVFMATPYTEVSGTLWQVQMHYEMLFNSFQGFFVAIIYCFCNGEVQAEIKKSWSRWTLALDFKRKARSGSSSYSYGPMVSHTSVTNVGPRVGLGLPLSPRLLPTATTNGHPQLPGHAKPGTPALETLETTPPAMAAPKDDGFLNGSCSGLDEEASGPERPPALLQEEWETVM
The experiment is described as follows: cAMP stimulation in COS-7 cells transiently transfected with WT hPTH-1 receptor. It counts as cell-based. The method, then: as §1, §2, §3

Another experiment deals with T3, PTH-1 receptor (Homo sapiens, UniProt Q03431).
T3 sequence (Q03431 27-593): T2 sequence (Q03431 27-593)
In words: Competition binding with 125I-rPTH(1-34) in HKRK-B7 cells. To be noted: 125I-rPTH(1-34) tracer. Further details: expressed in transfected cells; host or cells: LLC-PK1 porcine kidney cells, clone HKRK-B7. As to the method:
Binding reactions were performed with stably transfected HKRK-B7 cells in 24-well plates. Cells were rinsed with 0.5 mL of binding buffer (50 mM Tris-HCl, 100 mM NaCl, 5 mM KCl, 2 mM CaCl2, 5% heat-inactivated horse serum, 0.5% fetal bovine serum, adjusted to pH 7.7 with HCl), and treated successively with 100 μL binding buffer, 100 μL of binding buffer containing various amounts of unlabeled competitor ligand, and 100 μL of binding buffer containing ca. 100,000 cpm of ^125I-rPTH(1-34) (ca. 26 fmol). Incubations (final volume=300 μL) were at 15° C. for 4 h. Cells were then placed on ice, the binding medium was removed, and the monolayer was rinsed three times with 0.5 mL of cold binding buffer. The cells were subsequently lysed with 0.5 mL 5N NaOH and counted for radioactivity. The nonspecific binding for each experiment was determined by competition with a 1 μM dose of unlabeled rPTH(1-34). The maximum specific binding (B0) was the total radioactivity bound in the absence of unlabeled PTH ligand, corrected for nonspecific binding. Binding IC50 values were determined using nonlinear regression (see below).
All calculations were performed using Microsoft Excel. […] The predicted response (yp) for a given dose (x) of peptide was calculated using the following equation: yp=Min+[(Max−Min)/(1+(EC50/x)^slope)]. […]

The test system of experiment [2] is truncated PTH-1 receptor rP1R-ΔNt. To be noted: Luck et al. 1999; cited from earlier work.
Another experiment concerns the target PTH-1 receptors. The conditions noted are these: cells expressing (high levels of) PTH-1 receptors; Luck et al. 1999; read-out: EC50 adenyl cyclase/cAMP; cited from earlier work.
The test system of experiment [3] is truncated PTH-1 receptor rP1R-ΔNt. In words: cAMP with truncated rat PTH-1 receptor lacking the N-terminal extracellular domain (rP1R-ΔNt). In kind it is cell-based. To be noted: COS-7 cells expressing rP1R-ΔNt.
The mark [4] stands for this setting: COS-7 cells, WT hPTH-1 receptor.
[5] abbreviates: COS-7 cells, hDeINt truncated receptor, cAMP, read-out: EC50.

With `CCCC[C@H](NC(=O)[C@H](CCCNC(=N)N)NC(=O)[C@H](CCC(=O)O)NC(=O)[C@@H](NC(=O)[C@H](CO)NC(=O)[C@H](C)NC(=O)[C@H](CC(C)C)NC(=O)[C@H](Cc1c[nH]cn1)NC(=O)[C@H](CCCCN)NC(=O)CNC(=O)[C@H](CC(C)C)NC(=O)[C@H](CC(N)=O)NC(=O)[C@H](Cc1c[nH]cn1)NC(=O)[C@H](CCCC)NC(=O)[C@H](CC(C)C)NC(=O)[C@H](CCC(N)=O)NC(=O)[C@@H](NC(=O)[C@H](CCC(=O)O)NC(=O)[C@H](CO)NC(=O)[C@@H](NC(=O)[C@H](C)N)C(C)C)[C@@H](C)CC)C(C)C)C(=O)N[C@@H](CCC(N)=O)C(=O)N[C@@H](Cc1c[nH]c2ccccc12)C(=O)N[C@@H](CC(C)C)C(=O)N[C@@H](CCCNC(=N)N)C(=O)N[C@@H](CCCCN)C(=O)N[C@@H](CCCCN)C(=O)N[C@@H](CC(C)C)C(=O)N[C@@H](CCC(N)=O)C(=O)N[C@@H](CC(=O)O)C(=O)N[C@H](C(=O)N[C@@H](Cc1c[nH]cn1)C(=O)N[C@@H](CC(N)=O)C(=O)N[C@@H](Cc1ccc(O)cc1)C(N)=O)C(C)C` [[Nle8, 21, Y34]rPTH(1-34), [Nle^8,21,Tyr^34]-rPTH(1-34)NH2, reference compound], the Emax in experiment [1] (COS-7 cells) was determined as 243 ± 63 picomole/well; on WT hPTH-1 receptor (setting [4]), 226 ± 31 picomole/well.
For “AVAEIQLMHAR-NH2 [compound 6, AlaValAlaGluIleGlnLeuMetHisAlaArg-amide]”, the EC50 in experiment [1] (setting [5]) was determined as 27 ± 12.9 µM; on WT hPTH-1 receptor (COS-7 cells, WT hPTH-1 receptor, cAMP, read-out: EC50), 29.1 ± 15.3 µM. For the same molecule, the values for the Emax (in experiment [1] (COS-7 cells); at WT hPTH-1 receptor (setting [4])) were 243 ± 63 picomole/well and 238 ± 20 picomole/well, respectively.
In the case of “AVAEIQLMHARAKH-NH2 [Peptide #1, AlaValAlaGluIleGlnLeuMetHisAlaArgAlaLysHis-amide]”, the EC50 in experiment [1] (setting [5]) is 2.37 ± 1.06 µM; at WT hPTH-1 receptor (COS-7 cells, WT hPTH-1 receptor, cAMP, read-out: EC50 Log M (converted)) it was 1 µM. In addition, the Emax turned out to be 250 ± 61 picomole/well in experiment [1] (COS-7 cells) and 243 ± 63 picomole/well at WT hPTH-1 receptor (setting [4]). For the same molecule, in experiment [1] (truncated hPTH-1 receptor lacking most of the amino-terminal domain), the “fold more potent than native PTH(1-14)” value is recorded as 100 fold.
As for “AVAEIQLMHARAKHLNSMERVEWLRKKLQDVHNY-NH2 [Peptide #7]”, the EC50 in experiment [1] amounted to 0.28 ± 0.16 µM; on WT hPTH-1 receptor, 313 ± 121 µM. For the same molecule, the “potency relative to rPTH(1-34) or hPTH(1-34) (in words)” value in experiment [1] (COS-7 cells expressing hΔNt) is “dramatically more potent”. Also, the Emax in experiment [1] (COS-7 cells) turned out to be 251 ± 39 picomole/well; on WT hPTH-1 receptor (setting [4]), 222 ± 31 picomole/well. Further, the “improvement in binding affinity as compared to rPTH(1-34)” value on PTH-1 receptor was “about 2 fold”.
Consider “AVSEIQLMHNLGKH-NH2 [native rPTH(1-14), AVSEIQLMHNLGKH, reference compound]”, for which the EC50 in experiment [1] (setting [5]) is 313 ± 121 µM; on PTH-1 receptors, ~100 µM and 100 µM. Also, the Emax in experiment [1] (COS-7 cells) is reported as 222 ± 31 picomole/well; at WT hPTH-1 receptor (setting [4]) it was 221 ± 22 picomole/well. In experiment [2], the “potency with truncated vs intact rPTH-1 receptor (in words)” value is listed as “as potent”. Moreover, the “cAMP formation with rP1R-ΔNt (in words)” value in experiment [3] was “stimulated cAMP formation”.
